The record followed here is patent publication US4298739A, “Novel carbostyril derivatives” (priority 1977, dated 1981).

Series [1] concerns rabbit platelet. Description: ADP-induced aggregation in rabbit platelets (AG-II Aggregometer). In kind it is cell-based. The settings on record: Oryctolagus cuniculus, Platelet, read-out: Inhibition effect on ADP-induced aggregation in rabbit platelet; for inhibition at 100 µM (stock): 10^-4 mole; for inhibition at 10 µM (stock): 10^-5 mole; for inhibition at 1 µM (stock): 10^-6 mole. The protocol: (§1) The platelet aggregation inhibitory effect is measured by using AG-II Aggregometer (manufactured by Bryston Manufacturing Co.). The blood sample used for the test is a 1/9 (by volume) mixture of sodium citrate and whole blood collected from rabbit. Said sample is subjected to 10-minute centrifugal separation at 1,000 r.p.m. to obtain a platelet rich plasma (PRP). The thus obtained PRP is separated, and the remaining blood sample is further subjected to 15-minute centrifugal separation at 3,000 r.p.m. to obtain a platelet poor plasma (PPP).
(§2) The number of platelets in the PRP is counted by the Brecher-Clonkite Method, and the PRP is diluted with the PPP to prepare a PRP sample with platelet concentration of 300,000/mm^3 for the adenosine diphosphate (ADP)-induced aggregation test. There is also prepared a PRP sample with platelet concentration of 450,000/mm^3 for the collagen-induced aggregation test.
(§3) 0.6 ml of said PRP sample is added into 0.01 ml of a solution of a test compound of a predetermined concentration and the mixture is placed in a 37° C. thermostat for one minute. Then 0.07 ml of an ADP or collagen solution is added to the mixture. Transmittance of this mixture is determined and the change of transmittance is recorded by using the aggregometer at stirrer speed of 1,100 r.p.m. In this test, Auren Beronal buffer (pH 7.35) is used for the preparation of the ADP or collagen solution. ADP is adjusted to a concentration of 7.5×10^-5 M, and the collagen solution is prepared by triturating 100 mg of collagen with 5 ml of said buffer and the supernatant is used as collagen inducer. Adenosine and acetylsalicylic acid are used as controls for the ADP-induced aggregation test and the collagen-induced aggregation test, respectively. The platelet aggregation inhibitory effect is measured in terms of percent inhibition with respect to the aggregation rate of the controls. The aggregation rate is calculated from the following formula:
(§4) Aggregation rate=(c-a)/(b-a)×100
(§5) b: transmittance of PRP containing a test compound and an aggregation inducer
(§6) The inhibitory effect of the tested compounds on collagen-induced aggregation in rabbit platelets is shown in Table 1, and such effect on ADP-induced aggregation is shown in Table 2. The compounds tested are as follows.

The test system of series [2] is rabbit platelet. Description: Collagen-induced aggregation in rabbit platelets (AG-II Aggregometer). In kind it is cell-based. More on the design: inhibition: dose or concentration left out as unconfirmed. The settings on record: Oryctolagus cuniculus, Platelet, read-out: Inhibition effect on collagen induced aggregation in rabbit platelet; for inhibition at 100 µM (stock): 10^-4 mole; for inhibition at 10 µM (stock): 10^-5 mole; for inhibition at 1 µM (stock): 10^-6 mole. The protocol:
as §1, §2, §3, §4, §5, §6

Series [3] is described as follows: Acute toxicity test, oral administration to mice. In kind it is in vivo. The settings on record: mouse, in vivo, Male mice. The protocol:
The test compounds were administered orally to the mice and LD50 (mg/kg) of the compounds was determined.

As a reminder, the inhibition is the drop in the measured response relative to a control, in per cent. Broadly, the LD50 is the dose at which mortality reaches 50%.

Take `CN(C)C(=O)COc1cccc2c1CCC(=O)N2` [compound 43, 5-(N,N-dimethylaminocarbonylmethoxy)-3,4-dihydrocarbostyril, reference compound]: in the series with rabbit platelet [1], the inhibition at 100 µM (stock) stood at 22%, the inhibition at 10 µM (stock) came out at 17% and the inhibition at 1 µM (stock) stood at 8%. In addition, in the series on rabbit platelet [2], the inhibition at 100 µM (stock) came to 27%, the inhibition at 10 µM (stock) came out at 13% and the inhibition at 1 µM (stock) was determined as 0%. In addition, the LD50 in series [3] lay within 500 to 700 mg/kg.
Take `CCCNC(=O)CC(C)COc1ccc2c(c1)CCC(=O)N2` (stereo not shown) [compound 45, 6-[3-(N-Propylaminocarbonyl)-2-methylpropoxy]-3,4-dihydrocarbostyril, reference compound]: in the series with rabbit platelet [1], the inhibition at 100 µM (stock) came out at 32%, the inhibition at 10 µM (stock) turned out to be 17% and the inhibition at 1 µM (stock) was found to be 9%. For the same molecule, in the series with rabbit platelet [2], the inhibition at 100 µM (stock) is 12%, the inhibition at 10 µM (stock) turned out to be 5% and the inhibition at 1 µM (stock) amounted to 0%. The molecule also had an LD50 in series [3] of 500 to 800 mg/kg.
On to `CCCCCOC(=O)CCCOc1ccc2c(c1)CCC(=O)N2` [compound 33, 6-(3-Amyloxycarbonylpropoxy)-3,4-dihydrocarbostyril, reference compound], for which the LD50 in series [3] was more than 1000 mg/kg.
Consider `CN(C(=O)CCCOc1ccc2[nH]c(=O)ccc2c1Cl)C1CCCCC1` [compound 6, 5-Chloro-6-[3-(N-methyl-N-cyclohexylaminocarbonyl)propoxy]carbostyril], for which, in the series with rabbit platelet [1], the inhibition at 100 µM (stock) worked out at 87.2% and the inhibition at 10 µM (stock) worked out at 5.4%. In the series with rabbit platelet [2], the inhibition at 100 µM (stock) was 100%, the inhibition at 10 µM (stock) worked out at 53.3% and the inhibition at 1 µM (stock) worked out at 12.3%. This molecule registered an LD50 in series [3] of more than 1000 mg/kg.
Consider `CCOC(=O)CCCOc1cccc2c1CCC(=O)N2` [compound 32, 5-(3-Ethoxycarbonylpropoxy)-3,4-dihydrocarbostyril, reference compound], for which the LD50 in series [3] is more than 1000 mg/kg.
Turning to `O=C(O)CCCCCCOc1ccc2c(c1)CCC(=O)N2` [compound 36, 6-(6-Carboxyhexyloxy)-3,4-dihydrocarbostyril, reference compound], the LD50 in series [3] was more than 1000 mg/kg.
Regarding `CN(C(=O)CCCOc1ccc2c(c1)CCC(=O)N2)C1CCCCC1` [compound 15, 6-[3-(N-Methyl-N-cyclohexylaminocarbonyl)propoxy]-3,4-dihydrocarbostyril], in the series on rabbit platelet [1], the inhibition at 100 µM (stock) amounted to 88.3%, the inhibition at 10 µM (stock) stood at 26.8% and the inhibition at 1 µM (stock) was 10.8%. Besides, in the series with rabbit platelet [2], the inhibition at 100 µM (stock) turned out to be 94%, the inhibition at 10 µM (stock) came to 92.6% and the inhibition at 1 µM (stock) came to 34.1%. The LD50 in series [3] is more than 1000 mg/kg.
`COc1ccc(CCN(Cc2ccccc2)C(=O)CCCOc2ccc3c(c2)CCC(=O)N3)cc1OC` [compound 11, 6-{3-[N-Benzyl-N-(2-3',4'-dimethoxyphenylethyl)aminocarbonyl]propoxy}-3,4-dihydrocarbostyril]: in the series on rabbit platelet [1], the inhibition at 100 µM (stock) was 87.5%, the inhibition at 10 µM (stock) stood at 12.5% and the inhibition at 1 µM (stock) was determined as 16.9%. In the series with rabbit platelet [2], the inhibition at 100 µM (stock) came out at 88.1%, the inhibition at 10 µM (stock) stood at 75.8% and the inhibition at 1 µM (stock) is 28.1%. Besides, in series [3], the LD50 is more than 1000 mg/kg.
In series [3], `CCOC(=O)C(C)Oc1ccc2c(c1)CCC(=O)N2` (stereo not shown) [compound 25, 6-(1-Ethoxycarbonylethoxy)-3,4-dihydrocarbostyril, reference compound] came in with an LD50 of more than 1000 mg/kg.
Consider `CC(C)NC(=O)CCOc1cccc2c1CCC(=O)N2` [compound 41, 5-(N-Isopropylaminocarbonylethoxy)-3,4-dihydrocarbostyril, reference compound], for which, in the series with rabbit platelet [1], the inhibition at 100 µM (stock) was 18%, the inhibition at 10 µM (stock) was 13% and the inhibition at 1 µM (stock) stood at 7%. Besides, in the series on rabbit platelet [2], the inhibition at 100 µM (stock) was 17% and the inhibition at 1 µM (stock) came out at 0%. The molecule further registered an LD50 in series [3] of 500 to 800 mg/kg.
As to `COc1ccc(CCN(C)C(=O)CCCOc2ccc3[nH]c(=O)ccc3c2)cc1OC` [compound 4, 6-{3-[N-Methyl-N-(2-3',4'-dimethoxyphenylethyl)aminocarbonyl]propoxy}carbostyril], in the series on rabbit platelet [1], the inhibition at 100 µM (stock) came to 70.4%, the inhibition at 10 µM (stock) is 16.1% and the inhibition at 1 µM (stock) is 6.9%. Besides, in the series on rabbit platelet [2], the inhibition at 100 µM (stock) stood at 82.9%, the inhibition at 10 µM (stock) is 46.5% and the inhibition at 1 µM (stock) is 19.2%. The LD50 in series [3] was more than 1000 mg/kg.
As for `CCN(C(=O)CCCOc1c(Cl)cc(Cl)c2c1CCC(=O)N2)c1ccccc1` [compound 12, 6,8-Dichloro-5-[3-(N-ethylanilinocarbonyl)propoxy]-3,4-dihydrocarbostyril], in the series on rabbit platelet [1], the inhibition at 100 µM (stock) was determined as 71.7%, the inhibition at 10 µM (stock) came to 33.8% and the inhibition at 1 µM (stock) was determined as 12.7%. Also, in the series with rabbit platelet [2], the inhibition at 100 µM (stock) stood at 82.6%, the inhibition at 10 µM (stock) turned out to be 65.2% and the inhibition at 1 µM (stock) turned out to be 33.8%. The molecule further registered an LD50 in series [3] of more than 1000 mg/kg.
Take `C=CCN(C(=O)CCCOc1ccc2c(c1)CCC(=O)N2)C1CCCCC1` [compound 14, 6-[3-(N-Allyl-N-cyclohexylaminocarbonyl)propoxy]-3,4-dihydrocarbostyril]: in the series with rabbit platelet [1], the inhibition at 100 µM (stock) was determined as 41.3%, the inhibition at 10 µM (stock) amounted to 25.7% and the inhibition at 1 µM (stock) came to 15.1%. In the series with rabbit platelet [2], the inhibition at 100 µM (stock) was 82.4%, the inhibition at 10 µM (stock) is 42.3% and the inhibition at 1 µM (stock) is 15.7%. This molecule also showed an LD50 in series [3] of more than 1000 mg/kg.
`CC(C)OC(=O)C(C)Oc1ccc2[nH]c(=O)ccc2c1` (stereo not shown) [compound 31, 6-(1-Isopropoxycarbonylethoxy)carbostyril, reference compound]: the LD50 in series [3] is 900 to 1000 mg/kg.
For the molecule `CCOC(=O)C(C)Oc1cccc2c1NC(=O)CC2` (stereo not shown) [compound 37, 8-(1-Ethoxycarbonylethoxy)-3,4-dihydrocarbostyril, reference compound], in series [3], the LD50 is 900 to 1000 mg/kg.
In the case of `O=C1CCc2c(cccc2OCC(=O)N2CCOCC2)N1` [compound 42, 5-(Morpholinocarbonylmethoxy)-3,4-dihydrocarbostyril, reference compound], in the series on rabbit platelet [1], the inhibition at 100 µM (stock) was 13%, the inhibition at 10 µM (stock) came out at 6% and the inhibition at 1 µM (stock) stood at 0%. For the same molecule, in the series on rabbit platelet [2], the inhibition at 100 µM (stock) turned out to be 5%, the inhibition at 10 µM (stock) is 0% and the inhibition at 1 µM (stock) came out at 0%. This molecule also came in with an LD50 in series [3] of 400 to 600 mg/kg.
In series [3], `CCOC(=O)C(C)Oc1ccc2c(c1)NC(=O)CC2` (stereo not shown) [compound 28, 7-(1-ethoxycarbonylethoxy)-3,4-dihydrocarbostyril, reference compound] showed an LD50 of more than 1000 mg/kg.
On to `CC(=O)Oc1ccccc1C(=O)O` [compound 46, Aspirin, reference compound], for which, in the series with rabbit platelet [1], the inhibition at 100 µM (stock) was 7% and the inhibition at 10 µM (stock) came to 0%. Besides, in the series on rabbit platelet [2], the inhibition worked out at 9%.
Consider `CCOC(=O)CCCCCCOc1ccc2c(c1)CCC(=O)N2` [compound 35, 6-(6-Ethoxycarbonylhexyloxy)-3,4-dihydrocarbostyril, reference compound], for which the LD50 in series [3] was 750 to 1000 mg/kg.
`CCOC(=O)C(C)Oc1ccc2[nH]c(=O)ccc2c1` (stereo not shown) [compound 26, 6-(1-Ethoxycarbonylethoxy)carostyril, reference compound]: the LD50 in series [3] is more than 1000 mg/kg.
On to `CCCCCOC(=O)C(C)Oc1ccc2c(c1)CCC(=O)N2` (stereo not shown) [compound 30, 6-(1-Amyloxycarbonylethoxy)-3,4-dihydrocarbostyril, reference compound], for which the LD50 in series [3] was more than 1000 mg/kg.
Molecule `CCOC(=O)C(C)Oc1ccc2c(c1)CCC(=O)N2C` (stereo not shown) [compound 27, 1-Methyl-6-(1-ethoxycarbonylethoxy)-3,4-dihydrocarbostyril, reference compound] had an LD50 in series [3] of 800 to 1000 mg/kg.
